Measurements from patent publication US20210330611A1, “THERAPY FOR NEUROLOGICAL DISEASES/DISORDERS” (priority 2020, published 2021).
pIC50: −log10 of the molar value. Counter-ions that a name gives are not always drawn. Like-named read-outs stand apart in the source and are kept apart here.

Experiments:
[1] = test system: fibrin-induced microglia activation; assay: Image-based assay of fibrin-induced microglia activation (HTS and dose response); assay type: cell-based, rat; details: for pIC50 / IC50 / inhibition at 10 µM: Rattus norvegicus, Microglia; for pIC50: read-out: Fibrin IC50; for IC50: read-out: Fibrin IC50 (uM) (Suppl. Table 7); for inhibition at 10 µM: read-out: Fibrin % inhibition
[2] = test system: LPS-induced microglia activation; assay: Image-based assay of LPS-induced microglia activation (HTS and dose response); assay type: cell-based, rat; details: Rattus norvegicus, Microglia; for pIC50: read-out: LPS IC50; for inhibition at 10 µM: read-out: LPS % inhibition; for IC50: read-out: LPS IC50 (uM) (Suppl. Table 7)
[3] = test system: fibrin- and LPS-induced microglia activation; assay: cells; assay type: cell-based, rat; details: for inhibition at 10 µM: Rattus norvegicus
in vitro [4] = details: rat, Cell Toxicity IC50 (uM) [cFib assay]
in vitro [5] = details: rat
primary rat microglia [6] = assay: Cell toxicity (dead cells, size <150 μm2) in LPS assay
primary rat microglia [7] = assay: Cell toxicity (dead cells, size <150 μm2) in coated fibrin (cFib) assay;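 on Fibrin % cell toxicity: share of dead cells sized under 150 µm2 at 10 µM in fibrin-stimulated microglia HTS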
[8] = 48 h, Table 1, dose response 0.001-20 μM, triplicates, primary rat microglia, 48 h
[9] = dose response, fibrin-induced microglia activation
[10] = fibrin-induced microglia activation, dose response
[11] = primary microglia HTS, fibrin stimulation, increased cell size (>800 μm^2) as marker of activation
[12] = 48 h, primary microglia HTS, LPS stimulation, increased cell size (>800 μm^2) as marker of activation
[13] = LPS-induced microglia activation, dose response
[14] = dose response, LPS-induced microglia activation
[15] = HTS of 1907 compounds, quadrant by fibrin and LPS inhibition
[16] = Microglia, HTS hit classification, read-out: Hit
[17] = quadrant by fibrin and LPS inhibition in HTS of 1907 compounds
[18] = primary microglia HTS, LPS stimulation, decreased size (<150 μm^2) as marker of toxicity
[19] = primary microglia HTS, fibrin stimulation, decreased size (<150 μm^2) as marker of toxicity
[20] = hit classification in microglia HTS, read-out: Cherry-picked Hit (Suppl. Table 7)

Structure (SMILES)	pIC50 [1, 8]	pIC50 [1, 9]	IC50 [1, 10] [µM]	inhibition at 10 µM [1, 11] [%]	pIC50 [2, 8]	inhibition at 10 µM [2, 12] [%]	IC50 [2, 13] [µM]	pIC50 [2, 14]	Quadrant (FIG. 5b) [3, 15]	inhibition at 10 µM [3, 16] [%]	Quadrant (FIG. 5b) ([3]; Table 1, screen at 10 μM)	Quadrant (FIG. 5b) [3, 17]	IC50 (in vitro [4]; cFib assay) [µM]	pIC50 (in vitro [5])	LPS % cell toxicity (primary rat microglia [6]; [18]) [%]	Fibrin % cell toxicity (primary rat microglia [7]; [19]) [%]	inhibition at 10 µM [3, 20] [%]	also measured
NCCc1cc[nH]n1 [Betazole hydrochloride, reference compound]	4.92	4.92	12	59	< 4.70	38	> 20	< 4.70	Q3	> 50	Q3	Q3	> 20	< 4.70	1	1	–	Fibrin Selectivity [1]: 2; Fibrin Selectivity (LOG10) [1]: 0.22; IC50 ([1]; Table 3): 12 µM; IC50 ([2]; Table 3): > 20 µM; inhibition at 10 µM ([3]; Microglia, Table 3, read-out: Cherry-picked Hit (Suppl. Table 7)): > 50%; Quadrant (FIG. 5b) ([3]; Table 3, screen at 10 μM): Q3; IC50 (in vitro [4]; Table 3): > 20 µM; IC50 (primary rat microglia [6]; read-out: Cell Toxicity IC50 (uM) [LPS assay], LPS assay): > 20 µM
CC(=O)O[C@]1(C(C)=O)CC[C@H]2[C@@H]3C=C(Cl)C4=CC(=O)CC[C@]4(C)[C@H]3CC[C@@]21C [Chlormadinone acetate, reference compound]	–	–	–	72	< 4.70	43	> 20	< 4.70	Q3	> 50	Q3	Q3	> 20	< 4.70	0	1	> 50	–
NS(=O)(=O)c1cc(C2(O)NC(=O)c3ccccc32)ccc1Cl (centres unmarked) [Chlorthalidone, reference compound]	< 4.70	< 4.70	> 20	77	< 4.70	35	> 20	< 4.70	Q3	> 50	Q3	Q3	> 20	< 4.70	1	2	> 50	–
CCC(=O)O[C@]1(C(=O)CCl)[C@@H](C)C[C@H]2[C@@H]3CCC4=CC(=O)C=C[C@]4(C)[C@@]3(F)[C@@H](O)C[C@@]21C [Clobetasol propionate, reference compound]	> 9.00	> 9.00	< 0.001	108	> 9.00	105	< 0.001	> 9.00	Q2	> 50	Q2	Q2	> 20	< 4.70	3	3	> 50	inhibition at 10 µM ([1]; primary HTS, 10 μM, fibrin-stimulated primary microglia): -22%; inhibition at 10 µM ([2]; primary HTS, 10 μM, LPS-stimulated primary microglia): 30%; Quadrant (FIG. 5b) ([3]; primary HTS, 10 μM): Q4; LPS % cell toxicity (primary rat microglia [6]; primary HTS, 10 μM, LPS assay, dead cells size <150 μm2): 2%; Fibrin % cell toxicity (primary rat microglia [7]; primary HTS, 10 μM, fibrin assay, dead cells size <150 μm2): 1%
